According to patent publication US11999697B2, “Methods and compositions for inhibition of dihydroorotate dehydrogenase” (OHIO STATE INNOVATION FOUNDATION, priority 2018, dated 2024):

Tests used:
[1] = Pharmacokinetic study, single dose by IV, IP, PO; assay type: in vivo, wild type B6 mice; settings: 10 mg/kg single dose; for AUC(0-t) / Tmax / bioavailability / half-life: B6, mouse, plasma; for Cmax: B6, mouse plasma
Source text: LC-MS/MS Assay Materials: Acetonitrile and methanol were LC-MS grade (Fisher Scientific (Fair Lawn, N.J., USA). Other chemicals were as follows: formic Acid (98%, v/v in water; Fisher Scientific, Fair Lawn, N.J., USA); ammonium acetate (Sigma Aldrich Inc.); water: DDH2O obtained from a Millipore water system; and brequinar was obtained from Sigma. (>99% purity). Solvent A: 0.1% formic acid in water. Solvent B: 0.1% Formic Acid in methanol and acetonitrile. Internal Standard (“IS”) precipitation solution was 150 ng/ml internal standards in acetonitrile: water (3:1, v/v).
Sample preparation: To 10 μL plasma sample was added 100 μL of working IS solution and 20 μL MeOH. Samples were then vortexed for 30 seconds, followed by centrifugation (Eppendorf 5415 R centrifuge) at 10,000 rpm for 8 minutes at 4° C. Supernatant of each sample was transferred into an autosampler vial and sealed with rubber/Teflon crimp cap. Sample volume that was injected onto HPLC was 5 μL. The calibrations samples were prepared at a test compound concentration of 1000, 500, 250, 100, 50, 10, 5 ng/mL in mouse plasma. The quality control samples were as follows: QC1=750 ng/mL, OC2=75 ng/mL, QC3=25 ng/mL, LLOQ=5 ng/mL.
HPLC Parameters: Accucore Vanquish C18 column (100×2.1 mm, dp=1.5 μm) used in a Vanquish UHPLC system, using a XBridge® BEH C18, 5-μm guard column. Mobile phase: gradient as provided below in Table 8 below. Column temperature: 40° C.±5° C.; Autosampler temperature: 10° C.±5° C. Flow rate: 0.4 ml/min. run time: 5.0 min.
The mass spectrometer used was a TSQ Quantiva (Thermo Fisher Scientific).
Briefly, wild type B6 mice were injected with a single dose (10 mg/kg) of Cpd3 by three different injection routes: oral gavage (PO), intravenous (IV) and intraperitoneal (IP) (N=4 per route). The vehicle used was 15% ethanol, 30% polyethylene glycol (PEG), and this same vehicle was used for each delivery route. Cpd3 was prepared as a 2.5 mg/mL concentration and delivered at 10 mg/kg (volume delivered in microliters was 4 times the weight of the mouse in grams). Blood plasma was sampled at time zero (0) and […] additional time points (15, 30 and 60 minutes, and 2, 6 and 24 hours), and the level of Cpd3 determined in mouse plasma by LC-MS/MS assay as described above. The data were used to calculate Cmax, Clast, Tmax, T1/2, AUC, and bioavailability for Cpd3 as appropriate for the route of administration.

MOLM-13 = experiment: MTS cell proliferation assay, MOLM-13; assay type: cell-based; settings: Homo sapiens, 96 hours
Method: Triplicate wells were set up for each condition.
The assays were carried out in a blinded fashion.

CCOc1ccc(-c2ccc(-c3cc(C(=O)O)c4cc(F)ccc4n3)cc2)cc1 [Cpd3, 2-(4′-ethoxy-[1,1′-biphenyl]-4-yl)-6-fluoroquinoline-4-carboxylic acid] gave an AUC(0-t) ([1]; IP) of 120 ± 228 µg·h/mL, a Tmax ([1]; IP) of 18.6 ± 7.8 min and a bioavailability ([1]; IP) of 89%. For the same compound, the half-life ([1]; IP) was 132 ± 6.6 min, the AUC(0-t) ([1]; IV) was 134 ± 217 µg·h/mL and the half-life ([1]; IV) was 138 ± 11.4 min. The AUC(0-t) ([1]; PO) was 425 ± 163 µg·h/mL, the Tmax ([1]; PO) was 30 min and the bioavailability ([1]; PO) was 32%. For the same compound, the half-life ([1]; PO) was 336 ± 117 min, the Cmax ([1]; IP) was 40200 ± 9300 ng/mL and the Cmax ([1]; IV) was 36400 ± 14300 ng/mL. The Cmax ([1]; PO) was 12200 ± 4300 ng/mL, the “Clast” value ([1]; IP) was 0.016 ± 0.007 µg/mL and the “Clast” value ([1]; IV) was 0.022 ± 0.016 µg/mL. The “Clast” value ([1]; PO) was 0.31 ± 0.18 µg/mL and the IC50 (MOLM-13) was 0.4 µM.
